Reference: patent US20040063703A1, “Synergistic pesticide mixtures for the control of animal pests” (priority 2001, published 2004)

Legend:
[1] = test system: caterpillars of the diamondback moth (Plutella xylostella, sensitive strain); assay: Plutella test, sensitive strain (LC95, Carpenter); type: in vivo; settings: found
Excerpt: Plutella Test, Sensitive Strain

[2] = test system: larvae of the mustard beetle (Phaedon cochleariae); assay: Phaedon larvae test (LC50, Carpenter); settings: found, cabbage leaf dip
[3] = test system: caterpillars of the armyworm (Spodoptera frugiperda); assay: Spodoptera frugiperda test (LC50, Carpenter); type: in vivo; settings: found, cabbage leaf dip
Excerpt: (§1) Spodoptera frugiperda Test

[4] = test system: caterpillars of the diamondback moth (Plutella xylostella, resistant strain); assay: Plutella test, resistant strain (LC95, Carpenter); type: in vivo; settings: found
Excerpt: Plutella Test, Resistant Strain

[5] = test system: normally sensitive caterpillars of the diamondback moth (Plutella xylostella); assay: Plutella test (normally sensitive) (kill rate, Colby); type: in vivo; settings: normally sensitive strain
Procedure: Plutella Test (Normally Sensitive)
(§2) The kill rates determined are calculated using Colby's formula (see sheet 1).

[6] = test system: caterpillars of the armyworm (Spodoptera frugiperda); assay: Spodoptera frugiperda test (kill rate, Colby); type: in vivo; settings: cabbage leaf dip
Procedure: as §1, §2

[7] = test system: Heliothis virescens caterpillars; assay: Heliothis virescens test (kill rate, Colby); type: in vivo; settings: soya bean shoot dip
Procedure: as §2

[8] = test system: resistant caterpillars of the diamondback moth (Plutella xylostella); assay: Plutella test (resistant) (kill rate, Colby); type: in vivo; settings: resistant strain
Procedure: Plutella Test (Resistant)
as §2

[9] = test system: larvae of the mustard beetle (Phaedon cochleariae); assay: Phaedon larvae test (kill rate, Colby); type: in vivo; settings: cabbage leaf dip
Procedure: as §2

CN/C(=N\[N+](=O)[O-])NCc1cnc(Cl)s1 [clothianidin (X), (E)-1-(2-chloro-1,3-thiazol-5-yl-methyl)-3-methyl-2-nitroguanidine]
LC95 after 6 days [1]: 26.037 ppm | LC50 after 6 days [2]: 2.372 ppm | LC50 after 6 days [3]: 0.662 ppm | LC95 after 6 days [4]: 50.722 ppm

COC(=O)N(C(=O)N1CO[C@@]2(C(=O)OC)Cc3cc(Cl)ccc3C2=N1)c1ccc(OC(F)(F)F)cc1 [indoxacarb]
Kill rate in % after 6 days ([5]; 0.1 ppm): 65% | LC95 after 6 days [1]: 0.531 ppm | LC50 after 6 days [2]: 0.1 ppm | Kill rate in % after 6 days ([6]; 0.02 ppm): 0% | Kill rate in % after 3 days ([7]; 0.1 ppm): 0% | Kill rate in % after 6 days ([8]; 0.1 ppm): 55% | LC50 after 6 days [3]: 0.136 ppm | Kill rate in % after 3 days ([9]; 0.5 ppm): 20% | Kill rate in % after 6 days ([9]; 0.5 ppm): 45% | LC95 after 6 days [4]: 0.234 ppm

N#C/N=C1\SCCN1Cc1ccc(Cl)nc1 [thiacloprid, (Z)-3-(6-chloro-3-pyridylmethyl)-1,3-thiazolidin-2-ylidenecyanamide]
Kill rate in % after 6 days ([5]; 3 ppm): 0% | Kill rate in % after 6 days ([8]; 3 ppm): 0% | Kill rate in % after 6 days ([9]; 3 ppm): 0%

O=[N+]([O-])/N=C1\NCCN1Cc1ccc(Cl)nc1 [imidacloprid, 1-[(6-chloro-3-pyridinyl)methyl]-N-nitro-2-imidazolidineimine]
Kill rate in % after 6 days ([6]; 0.6 ppm): 0% | Kill rate in % after 3 days ([7]; 3 ppm): 15% | Kill rate in % after 3 days ([9]; 3 ppm): 0%
